In PubChem BioAssay AID192 (DTP/NCI, 2004) one finds T/C data, which are given here for 21 compounds.

The test system of this assay is BDF1 mice, B16 melanoma ip, median survival T/C. Description: NCI In Vivo Anticancer Drug Screen. Data for tumor model B16 Melanoma (intraperitoneal) in B6D2F1 (BDF1) mice. Conditions: endpoint: median survival time, higher = longer survival. A digest of the protocol: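 Transplantable tumor model; survival or tumor size measured; reported as T/C, treated over vehicle control.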

[1] abbreviates: dose: 12.5 mg/kg/injection, schedule: Q01DX009 (ip), vehicle: Klucel (hydroxypropylcellulose) (HPC).
The mark [2] stands for this setting: dose: 25.0 mg/kg/injection, schedule: Q01DX009 (ip), vehicle: Klucel (hydroxypropylcellulose) (HPC).
Where [3] appears, read: dose: 50.0 mg/kg/injection, schedule: Q01DX009 (ip), vehicle: Klucel (hydroxypropylcellulose) (HPC).
Setting [4] is: dose: 100.0 mg/kg/injection, schedule: Q01DX009 (ip), vehicle: Klucel (hydroxypropylcellulose) (HPC).
[5] abbreviates: dose: 200.0 mg/kg/injection, schedule: Q01DX009 (ip), vehicle: Klucel (hydroxypropylcellulose) (HPC).
The mark [6] stands for this setting: dose: 400.0 mg/kg/injection, schedule: Q01DX009 (ip), vehicle: Klucel (hydroxypropylcellulose) (HPC).
Where [7] appears, read: dose: 25.0 mg/kg/injection, schedule: Q01DX009 (ip), vehicle: saline with Tween-80.
Where [8] appears, read: dose: 50.0 mg/kg/injection, schedule: Q01DX009 (ip), vehicle: saline with Tween-80.
Setting [9] is: dose: 12.5 mg/kg/injection, schedule: Q01DX009 (ip), vehicle: saline.
Where [10] appears, read: dose: 25.0 mg/kg/injection, schedule: Q01DX009 (ip), vehicle: saline.
[11] abbreviates: dose: 75.0 mg/kg/injection, schedule: Q01DX009 (ip), vehicle: saline.

“And” between values parts separate entries of the source, which are not always exact repeats. Equal values may be shown once. Toxic doses and inconclusive results are not listed.

In the case of `Cc1cc(NCCCCCCNc2cc(C)nc3ccc(N)cc23)c2cc(N)ccc2n1`, the T/C runs as follows: (dose: 2.25 mg/kg/injection, schedule: Q01DX009 (ip), vehicle: saline with Tween-80) 104 % of control; (dose: 4.5 mg/kg/injection, schedule: Q01DX009 (ip), vehicle: saline with Tween-80) 102 % of control; (dose: 9.0 mg/kg/injection, schedule: Q01DX009 (ip), vehicle: saline with Tween-80) 104 % of control; (dose: 18.0 mg/kg/injection, schedule: Q01DX009 (ip), vehicle: saline with Tween-80) 122 % of control.
For `OC(CCN1CCCCC1)(c1ccccc1)C1CCCC1` (stereo not given), the T/C is 100 % of control under setting [1], 94 % of control under setting [2] and 100 % of control under setting [3].
Regarding `COC1NC(=O)NC(=O)C1=[N+]=[N-]` (stereo not given), the T/C (dose: 2.0 mg/kg/injection, schedule: Q01DX009 (ip), vehicle: water) was 112 % of control.
As for `Nc1nc(SCc2ccccc2)c2[nH]cnc2n1`, the T/C runs as follows: (dose: 3.13 mg/kg/injection, schedule: Q01DX009 (ip), vehicle: saline sonified) 95 % of control; (dose: 6.25 mg/kg/injection, schedule: Q01DX009 (ip), vehicle: saline sonified) 100 % of control; (dose: 12.5 mg/kg/injection, schedule: Q01DX009 (ip), vehicle: saline sonified) 93 % of control; (dose: 25.0 mg/kg/injection, schedule: Q01DX009 (ip), vehicle: saline sonified) 97 % of control.
Turning to `O=c1ssc(=Nc2ccccc2)n1-c1ccccc1`, the T/C was 102 % of control under setting [1]; 102 % of control under setting [2]; 100 % of control under setting [3]; 106 % of control under setting [4]; 91 % of control under setting [5].
On to `Cc1ccc(NC(=S)N(C)C)cc1C`, for which the T/C runs as follows: under setting [4], 100 % of control; under setting [5], 100 % of control; under setting [6], 92 % of control.
For `COC(=O)C1(C(=O)OC)C=CCCC1=O`, the T/C is, setting by setting: under setting [4], 99 % of control; under setting [5], 97 % of control.
On to `CC(C)=CCC/C(C)=C\CCl`, for which the T/C under setting [7] is 105 % of control and the T/C under setting [8] is 101 % of control.
With `O=C1C(Cl)=C(Cl)C(=O)c2ccccc21`, the T/C runs as follows: (dose: 5.0 mg/kg/injection, schedule: Q01DX009 (ip), vehicle: saline with Tween-80) 87 % of control; (dose: 10.0 mg/kg/injection, schedule: Q01DX009 (ip), vehicle: saline with Tween-80) 87 % of control.
For `CC1=C/C(O)CC(=O)Cc2nc(co2)C(=O)N2CCC=C2C(=O)OC(C(C)C)C(C)/C=C\C(=O)NC/C=C\1` (stereo not given), the T/C under setting [2] is 91 % of control; the T/C under setting [3] was 102 % of control; the T/C under setting [4] is 118 % of control; the T/C under setting [5] is 123 % of control; the T/C (dose: 0.5 micrograms/kg/injection, schedule: Q01DX009 (ip), vehicle: saline) was 103 % of control; the T/C (dose: 1.0 micrograms/kg/injection, schedule: Q01DX009 (ip), vehicle: saline) was 102 % of control. The T/C (dose: 2.0 micrograms/kg/injection, schedule: Q01DX009 (ip), vehicle: saline) is 107 % of control.
As for `Clc1ncnc2nc[nH]c12`, the T/C by setting is: (dose: 50.0 mg/kg/injection, schedule: Q01DX009 (ip), vehicle: saline sonified) 92 % of control; under setting [8], 86 % of control; (dose: 100.0 mg/kg/injection, schedule: Q01DX009 (ip), vehicle: saline sonified) 97 % of control; (dose: 100.0 mg/kg/injection, schedule: Q01DX009 (ip), vehicle: saline with Tween-80) 97 % of control; (dose: 200.0 mg/kg/injection, schedule: Q01DX009 (ip), vehicle: saline sonified) 110 % of control.
With `Cc1noc(C)c1CON`, the T/C runs as follows: (dose: 12.5 mg/kg/injection, schedule: Q04DX003 (ip), vehicle: saline) 118 % of control; (dose: 25.0 mg/kg/injection, schedule: Q04DX003 (ip), vehicle: saline) 118 % of control; (dose: 50.0 mg/kg/injection, schedule: Q04DX003 (ip), vehicle: saline) 123 % of control.
Consider `Cc1cccc(C)c1N1C(=O)CCC1=O`, for which the T/C was 101 % of control under setting [4], 95 % of control under setting [5] and 102 % of control under setting [6].
For `COc1cc(OC)c(OC)cc1/C=C\c1ccc2ccccc2[n+]1C`, the T/C was 93 % of control (dose: 6.25 mg/kg/injection, schedule: Q01DX009 (ip), vehicle: saline); 100 % of control under setting [9]; 97 % of control under setting [10].
For the compound `OCC(F)(F)C(F)(F)C(F)(F)F`, the T/C runs as follows: under setting [11], 105 % of control; (dose: 150.0 mg/kg/injection, schedule: Q01DX009 (ip), vehicle: saline) 106 % of control; (dose: 300.0 mg/kg/injection, schedule: Q01DX009 (ip), vehicle: saline) 100 % of control.
On to `COc1cccc2c1C(=O)c1c(O)c3c(c(O)c1C2=O)CC(O)(C(C)=O)CC3O` (stereo not given), for which the T/C is 91 % of control (dose: 0.12 mg/kg/injection, schedule: Q01DX009 (ip), vehicle: saline); 94 % of control (dose: 0.12 mg/kg/injection, schedule: Q04DX003 (ip), vehicle: saline); 100 % of control (dose: 0.25 mg/kg/injection, schedule: Q04DX003 (ip), vehicle: saline); 86 % of control (dose: 0.5 mg/kg/injection, schedule: Q01DX009 (ip), vehicle: saline); 105 % of control (dose: 0.5 mg/kg/injection, schedule: Q04DX003 (ip), vehicle: saline); 94 % of control (dose: 1.0 mg/kg/injection, schedule: Q01DX009 (ip), vehicle: saline). Also, the T/C was 97 % of control (dose: 1.0 mg/kg/injection, schedule: Q04DX003 (ip), vehicle: saline); 102 % of control (dose: 2.0 mg/kg/injection, schedule: Q01DX009 (ip), vehicle: saline); 102 % of control (dose: 2.0 mg/kg/injection, schedule: Q04DX003 (ip), vehicle: saline); 100 % of control (dose: 4.0 mg/kg/injection, schedule: Q01DX009 (ip), vehicle: saline); 108 % of control (dose: 4.0 mg/kg/injection, schedule: Q04DX003 (ip), vehicle: saline); 105 % of control (dose: 8.0 mg/kg/injection, schedule: Q01DX009 (ip), vehicle: saline).
For the compound `CCN(CC)CCNc1ccc(N=Nc2cnc3ccccc3c2)c2ccccc12`, the T/C is 90 % of control under setting [7] and 94 % of control under setting [8].
Regarding `COc1ccc2c(c1Oc1ccc([N+](=O)[O-])cc1[N+](=O)[O-])C13CCN(C)C(C2)C1CCC1(C3)OCCO1` (stereo not given), the T/C was 111 % of control under setting [4] and 86 % of control under setting [5].
On to `COc1ccc([C@@H]2c3cc4c(cc3C[C@H]3COC(=O)[C@@H]32)OCO4)cc1OC`, for which the T/C is, setting by setting: (dose: 11.0 mg/kg/injection, schedule: Q01DX009 (ip), vehicle: saline with Tween-80) 124 % of control; (dose: 22.0 mg/kg/injection, schedule: Q01DX009 (ip), vehicle: saline with Tween-80) 111 % of control; (dose: 33.0 mg/kg/injection, schedule: Q01DX009 (ip), vehicle: saline with Tween-80) 124 % of control; (dose: 67.0 mg/kg/injection, schedule: Q01DX009 (ip), vehicle: saline with Tween-80) 113 % of control.
For the compound `CCCCCCCCCCCCCCCCCC(=O)OCC(=O)OCC(=O)[C@]1(O)Cc2c(O)c3c(c(O)c2[C@@H](OC2CC(N)C(O)C(C)O2)C1)C(=O)c1c(OC)cccc1C3=O` (stereo not given in full), the T/C is, setting by setting: (dose: 3.75 mg/kg/injection, schedule: Q01DX001 (ip), vehicle: water) 236 % of control; (dose: 7.5 mg/kg/injection, schedule: Q01DX001 (ip), vehicle: water) 287 % of control and 289 % of control; (dose: 15.0 mg/kg/injection, schedule: Q01DX001 (ip), vehicle: water) 289 % of control; (dose: 30.0 mg/kg/injection, schedule: Q01DX001 (ip), vehicle: water) 154 % of control and 289 % of control (2×).
Regarding `OCCN1CCN(CCCN2c3ccccc3Sc3cccnc32)CC1`, the T/C (dose: 9.37 mg/kg/injection, schedule: Q01DX009 (ip), vehicle: saline) was 89 % of control; the T/C under setting [9] was 93 % of control; the T/C (dose: 18.75 mg/kg/injection, schedule: Q01DX009 (ip), vehicle: saline) was 107 % of control; the T/C under setting [10] is 113 % of control; the T/C (dose: 37.5 mg/kg/injection, schedule: Q01DX009 (ip), vehicle: saline) is 105 % of control; the T/C under setting [11] is 102 % of control.
